Patent publication EP4268823A1, “COMPOUND FOR TREATING NEUROINFLAMMATION” (Universitätsklinikum Hamburg-Eppendorf, priority 2022, dated 2023)

Columns and labels:
[1] = tested on: primary neuronal cultures; test: Oxidative stress detection with CellROX green reagent after glutamate; format: cell-based, mouse; conditions: 20 µM glutamate 1 hour, UNC0642 pre-treatment
Protocol: (§1) For primary cortical cultures pregnant C57BL/6J, or G9afl/fl;Snap25-Cre mice were euthanized. To ensure comparability between genotypes, only embryos from heterozygous breeding's were used. Brainstem tissue of each embryo for genotyping was reserved and cortices were isolated, dissociated and cells were plated at a density of 1 × 10^5 cells per 1 cm^2 on poly-D-lysine-coated wells (5 µM Sigma-Aldrich, cat. no. A-003-M). If not stated otherwise, cells were maintained in neurobasal plus medium (supplemented with B27 plus, penicillin, streptomycin and L-glutamine; Gibco, cat. no. A3582901) at 37°C, 5% CO^2 and a relative humidity of 98%, and treated with 1 µM cytarabine (Sigma-Aldrich, cat. no. BP383) at 1 day in vitro (div) to inhibit glial cell proliferation. If no cytarabine was applied cells were maintained in PNBM medium (supplemented with neural cell survival factor, gentamycin and L-glutamine; Lonza). Throughout, cultures after 14-23 div were used for experiments. G9a inhibitor UNC0642 was used in a concentration of 1 µM and cultures were pre-treated 24 hours before further experimental procedures.
For the detection of oxidative stress in response to glutamate treatment, CellROX green reagent (Thermofisher) was used. […] Immunofluorescence of nuclear CellROX dye was quantified using Fiji (ImageJ).

[2] = tested on: primary cortical cultures; test: RealTime-Glo cell viability assay, glutamate excitotoxicity; format: cell-based, mouse; conditions: G9a-deficient neurons from G9afl/fl;Snap25-Cre mice treated with UNC0642; readout not stated
Protocol: as §1, with “G9a inhibitor UNC0642 was used in a concentration of 1 µM and cultures were pre-treated 24 hours before further experimental procedures.” left out
RealTime-Glo (Promega, cat. no. G9711) MT cell viability substrate and NanoLuc Enzyme was mixed together, added to neuronal cultures and incubated for 5 hours for equilibration of luminescence signal before respective treatments were applied. Luminescence was acquired with a Spark 10M multimode microplate reader (Tecan) at 37°C and 5% CO2 every 30 min over a total time period of 24 hours. […]

G9a = target: T1, G9a (Mus musculus, UniProt Q9Z148); test: H3K9me2 / G9a immunofluorescence staining in primary neuronal cultures; format: cell-based
T1 construct: UNC0642 pre-treated primary neuronal cultures compared to respective controls; endogenous in cells; host or cells: primary mouse cortical neuronal cultures (C57BL/6J embryos)
T1 sequence (Q9Z148 1-1263): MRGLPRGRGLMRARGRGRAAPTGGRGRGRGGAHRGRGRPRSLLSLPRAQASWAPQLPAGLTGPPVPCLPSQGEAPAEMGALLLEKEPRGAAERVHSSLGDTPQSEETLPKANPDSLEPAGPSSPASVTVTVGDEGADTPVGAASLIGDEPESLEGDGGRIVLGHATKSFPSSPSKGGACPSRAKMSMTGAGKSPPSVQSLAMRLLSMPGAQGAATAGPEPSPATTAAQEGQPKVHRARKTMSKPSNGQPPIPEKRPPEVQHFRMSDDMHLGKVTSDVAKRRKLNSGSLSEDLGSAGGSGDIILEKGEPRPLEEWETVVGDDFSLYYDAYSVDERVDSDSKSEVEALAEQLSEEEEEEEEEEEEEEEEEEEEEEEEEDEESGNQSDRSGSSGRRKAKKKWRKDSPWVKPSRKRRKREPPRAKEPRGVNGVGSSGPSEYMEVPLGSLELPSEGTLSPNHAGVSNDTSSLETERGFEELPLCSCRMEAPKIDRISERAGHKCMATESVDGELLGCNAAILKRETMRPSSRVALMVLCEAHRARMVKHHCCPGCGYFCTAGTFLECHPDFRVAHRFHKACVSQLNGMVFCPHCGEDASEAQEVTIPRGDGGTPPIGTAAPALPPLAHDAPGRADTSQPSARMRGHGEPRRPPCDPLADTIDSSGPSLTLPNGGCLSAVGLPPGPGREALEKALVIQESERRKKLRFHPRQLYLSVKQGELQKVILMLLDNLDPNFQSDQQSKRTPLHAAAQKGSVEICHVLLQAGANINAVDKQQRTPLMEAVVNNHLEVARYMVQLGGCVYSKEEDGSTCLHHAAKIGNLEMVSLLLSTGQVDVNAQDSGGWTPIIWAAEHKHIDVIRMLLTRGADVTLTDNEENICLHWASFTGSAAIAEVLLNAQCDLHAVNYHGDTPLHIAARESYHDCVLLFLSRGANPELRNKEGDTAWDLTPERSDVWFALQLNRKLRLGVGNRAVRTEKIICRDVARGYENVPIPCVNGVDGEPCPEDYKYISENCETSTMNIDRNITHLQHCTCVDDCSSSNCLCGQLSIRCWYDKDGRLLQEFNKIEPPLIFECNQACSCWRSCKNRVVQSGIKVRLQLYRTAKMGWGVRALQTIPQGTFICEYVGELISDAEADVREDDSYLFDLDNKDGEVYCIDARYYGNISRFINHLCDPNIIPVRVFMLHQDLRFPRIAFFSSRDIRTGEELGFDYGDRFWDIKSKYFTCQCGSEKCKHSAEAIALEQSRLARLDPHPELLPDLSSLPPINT
Protocol: as §1
Immunocytochemistry was performed as described previously (15). HiPSC-neurons and mouse neurons were cultivated on 12 mm diameter cover slips or on 96-well plates suited for confocal microscopy, fixed with 4% paraformaldehyde (PFA), incubated in 10% normal donkey's serum (NDS) containing 0.25% Triton X-100, and subsequently immunolabeling was performed. Immunostainings were analyzed with a Zeiss LSM 700 confocal microscope.

cyclooxygenase-2 (COX-2) = test: COX-2 immunostaining after glutamate stimulation; format: cell-based, mouse; conditions: glutamate excitotoxicity ± UNC0642
Protocol: as §1
Immunocytochemistry was performed as described previously (15). […] Immunostainings were analyzed with a Zeiss LSM 700 confocal microscope.

EAE mice = test: Experimental autoimmune encephalomyelitis (EAE): clinical score and spinal cord histopathology
anti-ferroptotic genes = test: qPCR of ferroptosis-related genes in sorted spinal cord neuronal nuclei of EAE mice; format: in vivo, mouse; conditions: EAE + UNC0642 vs. EAE
[3] = primary neuronal cultures, 1 µM UNC0642 pre-treated 24 hours, vs. DMSO

COc1cc2c(NC3CCN(C(C)C)CC3)nc(N3CCC(F)(F)CC3)nc2cc1OCCCN1CCCC1 [UNC0642, 2-(4,4-difluoropiperidin-1-yl)-6-methoxy-N-[1-(propan-2-yl)piperidin-4-yl]-7-[3-(pyrrolidin-1-yl)propoxy]quinazolin-4-amine]
generation of ROS (CellROX green) [1]: reduced the generation of ROS close to baseline levels | additional rescue effect during glutamate stress [2]: no additional rescue effect | upregulation of H3K9me2 in response to ferroptosis induction (G9a; erastin or RSL3, with UNC0642): effectively prevented | upregulation of H3K9me2 by hydrogen peroxide treatment (G9a; hydrogen peroxide stimulation, UNC0642 treatment): still able to overcome this effect | G9a protein level (G9a; [3]): did not change | reduction of H3K9me2 signal (G9a; [3]): 45% | induction of COX-2-positive cells (cyclooxygenase-2 (COX-2)): almost completely abolished its induction | EAE disease course (EAE mice; 5 mg kg-1 body weight once daily intraperitoneally from symptom onset, vs. vehicle): significantly ameliorated EAE disease course | body weight changes (EAE mice; EAE, 5 mg kg-1 UNC0642): not altered | immune cell infiltration (EAE mice; EAE, 5 mg kg-1 UNC0642): not altered | microglia activation (EAE mice; EAE, 5 mg kg-1 UNC0642): not altered | 4-hydroxy-2-nonenal (4-HNE) levels (EAE mice; cervical spinal cord sections, chronic EAE, 5 mg kg-1 UNC0642 vs. vehicle): significantly reduced | neuronal loss in the spinal cord ventral horn (EAE mice; chronic EAE, day 30, 5 mg kg-1 UNC0642): reduced neuronal loss | mRNA expression of Cbs (anti-ferroptotic genes): significantly boosted the expression | mRNA expression of Gclc (anti-ferroptotic genes): significantly boosted the expression | mRNA expression of Gpx4 (anti-ferroptotic genes): significantly boosted the expression | mRNA expression of Nfe212 (anti-ferroptotic genes): significantly boosted the expression | mRNA expression of multiple glutathione S-transferases (anti-ferroptotic genes): derepression
